For experiment [1], the system named is osteoclasts. Put plainly: Murine co-culture system (osteoblast-bone marrow co-culture on dentine). The following applies: for inhibition of osteoclast formation and activity: murine co-culture system. In kind it is cell-based, mice. As to the method:
The first model system, the murine co-culture system, studies the formation of osteoclasts_from precursors present in the bone marrow. The number of osteoclasts and the amount of dentine resorption was measured.
Osteoclast formation and activity was studied using an adaptation (see, e.g., van't Hof & Ralston, 1997) of the osteoblast-bone marrow co-culture assay originally described by Takahashi et al., 1988.
Co-Culture Methods. Co-culture (see, e.g., Van't Hof et al., 1997) is a method to study the formation of osteoclasts from their precursors. In this assay, osteoblasts were obtained from the calvaria of 2-3 day old neonatal mice. These were plated on dentine, stimulated with 1,25-dihydroxy vitamin D3 to stimulate RANKL and M-CSF expression. Early osteoclast precursors were present in the bone marrow of adult mice. The bone marrow suspension was purified to remove the red blood cells and the remainder cultured on top of the osteoblast layer. The stimulatory factors then allowed the osteoclast precursors to differentiate into mature osteoclasts. At the end of the culture osteoclasts were identified by TRAcP staining and the resorption activity was measured in the same manner as for rabbit osteoclasts.
Preparation of Dentine. The dentine was elephant ivory, preferred to bone because of its uniform surface, which facilitates easy visualisation of resorption pits. It was cut into slices of approximately 200 μm thickness using a Buehler Isomet low speed saw with a diamond wafering blade (series 15 HC). These slices were polished by hand, to a high degree, until one side was shiny. Out of these slices, discs were punched that fit the wells of a 96 well plate, using a paper puncher. Excess residues from the polish were removed by sonication. The discs were then stored in 70% ethanol until required. These discs were then dried and placed shiny side up in the wells of a 96 well plate. Cells were seeded onto the dentine. Following completion of the culture, these dentine slices were carefully removed from the plate and studied under the microscope.
Osteoblast Isolation. Briefly, osteoblasts were isolated from the calvarial bones of 2-day-old mice by sequential collagenase digestion (type I collagenase, Sigma) and cultured in αMEM supplemented with 10% FCS (foetal calf serum) and penicillin and streptomycin at 37° C. in 5% CO2.
More specifically, osteoblasts were obtained from a collagenase digestion of the calvaria (skull bones) of 2-3 day old neo-natal MF1 mice. At this stage in their development these are soft and easily removed. The calvaria from 5-6 mice were carefully dissected and washed in HBSS (Hank's balanced saline solution). The calvaria were placed in a 15 ml tube and shaken at 37° C. in 4 ml collagenase (10 mg/ml) for 10 minutes. This removes the excess unwanted tissue. The liquid was disposed of and a further 4 ml collagenase (10 mg/ml) added to the tube. The calvaria were then digested for a further 30 minutes. After this the supernatant (F1) was removed and retained. The calvaria were washed with a 2×4 ml PBS and this was added to F1. 4 ml EDTA (ethylene diamine tetraacetic acid) (4 mM in PBS) was then added to complex the calcium and allow further extraction of osteoblasts. This was shaken for 10 minutes at 37° C. The supernatant was removed and retained (F2). The calvaria were again washed with 2×4 ml HBSS and this was added to F2. The final 4 ml of collagenase (10 mg/ml) was added to the tube and this was again shaken at 37° C. for 30 minutes. […]

The test system of experiment [2] is macrophage cell line J774. The experiment in a line: MTT macrophage J774 viability assay. The following applies: MTT assay; for macrophage J774 viability, activity in words: range of concentrations (FIGS. 4-7); for IC50: Mus musculus, macrophage J774 viability. Format: cell-based. As to the method:
MTT (3-(4,5-dimethylthiazol-2-yl)-2,5-diphenyl tetrazolium bromide) has an […] colour and is soluble in the medium used for cell culture. The mitochondrial enzyme succinate dehydrogenase acts upon MTT in living cells to produce the insoluble purple coloured formazan. The amount of formazan produced, as measured by UV/visible spectroscopy, is proportional to the number of viable cells.
The medium was carefully removed using a needle without dislodging the crystal layer. 100 μL acidified isopropanol (4 M HCl 1:100 v/v in isopropanol) was added to each well and the purple crystals allowed to dissolve. The absorbance was measured in a plate reader at 540 nm, with 690 nm as reference. The controls were a deep purple colour, indicating a high number of live cells.
Addition of Compounds. […] These stock solutions were then diluted 100× in culture medium.
On the technique in general: Tetrazolium assays rely on reduction of a dye to a coloured formazan, in cell work by metabolically active cells.

Experiment [3] relates to macrophage cell line J774. The experiment in a line: Alamar Blue macrophage J774 viability assay. The following applies: Mus musculus, J774, 72 h, read-out: IC50 (μM) Alamar Blue. (In general: Resazurin is reduced to fluorescent resorufin, in cell work by metabolically active cells.)
Experiment [4] relates to rabbit osteoclasts. Put plainly: Rabbit osteoclast culture system. In kind it is cell-based. The following applies: for rabbit osteoclast numbers / resorption activity: rabbit osteoclast culture on dentine. From the text: The second model system was the rabbit osteoclast system, where mature, functional osteoclasts were isolated from the long bones of rabbits and cultured on dentine slices.
Osteoclast Isolation. Osteoclasts were isolated from the long bones of 2-10 day-old rabbits, as described previously (see, e.g., reference Coxon et al., 2000). All 4 limbs were removed from the rabbits and placed in ice-cold PBS. Soft tissue and cartilage were removed and the bones transferred into fresh PBS. The bones were minced in aMEM (without FCS), using a scalpel. All the medium and fragments were transferred to a 50 ml tube, vortexed for 3×10 seconds and left to stand for 1 minute. The supernatant was removed and made up to 50 ml/rabbit with medium and FCS so as to give a final concentration of 10% FCS.
Osteoclast Plating. The cells were plated onto dentine slices in a 96 well plate, at 100 μL/well (medium: αMEM supplemented with 10% FCS and penicillin and streptomycin) and left for 4 hours to allow adherence to the dentine. After this period the medium was removed, and with it the non-adherent cells. Fresh medium was then added. The remaining population was highly enriched in osteoclasts.
Culturing. At this point, test compounds to be studied were added and the cells cultured at 37° C. in 5% CO2 for 48 hours. At the end of the culture, the osteoclasts were identified by staining for tartrate-resistant acid phosphatase (TRAcP) staining. A good number of osteoclasts in the controls was 100-200.
The resorption pit area was quantified by reflected light microscopy as described previously (see, e.g., van't Hof & Ralston, 1997) and again the results expressed as a % of the control values.

Molecules are shown by their SMILES. Entries after “also recorded” stand apart in the source; their conditions may differ.

The results in this text go back to patent US7745424B2, “Alkane diol derivatives as therapeutic agents for the treatment of bone conditions” (The Univeristy Court of the University of Aberdeen, priority 2001, dated 2010).

As a reminder, the IC50 is the concentration needed to halve the response being measured.

Turning to `OCCCCO` [1,4-butanediol, reference compound], the “inhibition of osteoclast formation and activity” value (shortened to “inhibition”) in experiment [1] is on record as “no detected effect”.
With `O=C(OCCCCO)C(c1ccccc1)(c1ccccc1)c1ccccc1` [ABD-0028, 1,4-Butandiol mono(triphenylacetic acid)Ester], the “macrophage J774 viability, activity in words” value (from here on “macrophage J774 viability”) in experiment [2] is “more potent”. In addition, the IC50 in experiment [2] worked out at 20 µM; in experiment [3], 30 µM.
Turning to `O=C(Cc1ccc(-c2ccccc2)cc1)OCCCCO` [ABD-0042, 1,4-Butanediol mono(biphenyl-4-yl-acetic acid)Ester], in experiment [2], the “macrophage J774 viability” value is on record as “very active” and the IC50 is 45 µM. Further, in experiment [3], the IC50 was 45 µM.
Consider `O=C(OCCCCCCO)c1ccc(-c2ccccc2)cc1` [ABD-0054, 1,6-Hexanediol mono(biphenyl-4-carboxylic acid)Ester], for which, in experiment [2], the “macrophage J774 viability” value is on record as “next most active” and half-maximal inhibition (IC50) required 35 µM. In experiment [4], the rabbit osteoclast numbers result is given as “significantly reduced” and the resorption activity result is reported as “significantly reduced”. The “inhibition” value in experiment [1] was “significantly inhibited”.
On to `O=C(OCCCCO)c1ccc(-c2ccccc2)cc1` [ABD-0056, 1,4-Butanediol mono(biphenyl-4-carboxylic acid)Ester], for which, in experiment [2], the IC50 is 3.5 µM. The “concentrations showing a significant effect” value in experiment [4] (osteoclast numbers and resorption activity) is at least 10 µM. In experiment [4], the rabbit osteoclast numbers result is recorded as “significantly reduced” and the resorption activity entry is recorded as “significantly reduced”. Further, the IC50 in experiment [3] worked out at 18 µM. The “number of murine osteoclasts (osteoclast precursors)” value in experiment [1] (compound added at Day 2, removed at Day 4, terminated at Day 10 (FIG. 15)) was “even more effective against osteoclast precursor formation than against mature osteoclasts”. Further, the “resorption pit area (osteoclast precursors)” value in experiment [1] (compound added at Day 2, removed at Day 4, terminated at Day 10, all concentrations tested (FIG. 16)) was “virtually no resorption”. In experiment [1], the “inhibition” value was “significantly inhibited; also recorded: potent inhibitor”.
